Data: patent publication US8735406B2, “8-oxodihydropurine derivative” (Dainippon Sumitomo Pharma Co., Ltd., priority 2009, dated 2014)
Like-named read-outs stand apart in the source and are kept apart here.

Target: T1, FAAH (Rattus norvegicus, UniProt P97612)
T1 construct: Preparation of Rat Brain Membranes Preparations (FAAH Enzyme Solution); from tissue; host or cells: rat cerebrum (brain membrane preparation)
T1 sequence (P97612 1-579): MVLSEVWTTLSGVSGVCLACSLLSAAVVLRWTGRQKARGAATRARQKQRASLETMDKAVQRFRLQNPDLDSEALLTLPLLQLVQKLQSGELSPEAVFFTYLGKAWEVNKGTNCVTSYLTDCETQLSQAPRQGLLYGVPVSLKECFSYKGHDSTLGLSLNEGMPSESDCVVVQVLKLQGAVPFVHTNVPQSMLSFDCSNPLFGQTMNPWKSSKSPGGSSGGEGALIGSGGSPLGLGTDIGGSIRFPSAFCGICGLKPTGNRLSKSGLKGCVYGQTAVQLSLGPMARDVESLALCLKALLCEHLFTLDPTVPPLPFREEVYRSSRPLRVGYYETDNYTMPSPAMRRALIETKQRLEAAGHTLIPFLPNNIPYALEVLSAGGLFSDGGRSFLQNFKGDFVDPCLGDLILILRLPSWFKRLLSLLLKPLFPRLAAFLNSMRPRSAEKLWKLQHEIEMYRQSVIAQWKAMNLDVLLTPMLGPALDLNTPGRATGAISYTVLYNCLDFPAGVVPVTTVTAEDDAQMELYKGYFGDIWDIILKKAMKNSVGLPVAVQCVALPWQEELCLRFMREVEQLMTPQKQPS
Assay: Determination of FAAH inhibitory activity in rat (rat brain membrane preparations, [3H]-anandamide hydrolysis)
Format: biochemical
Conditions: for IC50: read-out: FAAH Inhibition IC50
Description: Determination of FAAH Inhibitory Activity in Rat
The preparation of rat brain membranes preparations and the determination of FAAH inhibitory activity were carried out according to the Jonsson et al. method [Br. J. Pharmacol., 133, 1263 (2001)].
(1) Preparation of Rat Brain Membranes Preparations (FAAH Enzyme Solution)
The cerebrum was extracted from rats and was freeze-stored at −80° C. To the frozen cerebrum was added 4° C. enzyme homogenization buffer (20 mM HEPES-buffer pH 7.0, 1 mM MgCl2) and the mixture was homogenized using a homogenizer in ice and the homogenates were centrifuged (36,000×g for 20 minutes). After repeating operations of homogenization and centrifugation, the tissue pellets were re-suspended with 4° C. enzyme homogenization buffer. The re-suspensions were incubated at 37° C. for 15 minutes and were centrifuged (36,000×g for 20 minutes), and the resulting tissue membranes were then re-suspended with enzyme solution preparation buffer (50 mM Tris-HCl buffer pH 7.4, 1 mM EDTA, 3 mM MgCl2). The protein concentration in the resulting membrane preparations were determined according to a colorimetry method (BCA Protein Assay: Pierce Inc.) and the preparations were freeze-stored at −80° C. until used for assay.
(2) Screening of Substances for Inhibiting FAAH Activity
To the above membrane preparations (final concentration 100 μg/mL) were added a solution of test substances in DMSO (final concentration in DMSO 1%) and an assay buffer (for final preparation; 22 mM Tris-HCl (pH 7.6), 1.4 mM EDTA, 1.5% BSA, 0.6 mM MgCl2) and the resulting mixtures were preincubated at 37° C. for 10 minutes. Thereto was added a substrate solution (for final preparation; 2 nM [^3H]-Anandamide (American Radiolabeled Chemicals Inc.)+2 μM Anandamide (Sigma-Aldrich Co.)) (final assay volume of 200 μL) and the resulting mixtures were incubated at 37° C. for 10 minutes. Here in control experiment, DMSO was added instead of the solution of test substance in DMSO. Also in blank experiment, DMSO was added instead of the solution of test substance in DMSO and an enzyme solution preparation buffer was also added instead of the membrane preparations. After the incubation, thereto was added a 400 μL ice-cooled solution of chloroform and methanol (1:1 ratio by volume) and the resulting mixtures were stirred. An ethanolamine (ethanolamine-1-[^3H]) as a decomposed product was separated into an upper layer (water/methanol layer) by centrifugation (1,000×g for 10 minutes). The upper layer 200 μL was transferred into 96 well Deepwell Luma Plate-96 (PerkinElmer Inc.) and the radioactivity was measured by microplate scintillation counter (TopCount NXT™: […].). The substances showing a lower measured value compared to those of control were selected as the compound having a FAAH inhibitory activity.
(3) Determination of IC50 Value
The test substances were prepared such that the final concentration of the compounds is within the range of 0.1 nM to 1 μM and were then examined on the effect on FAAH activity according to the above-mentioned protocol.

[1] = at 100 nM, rat brain membrane preparations, read-out: FAAH Inhibition Inhibition Rate at 100 nM
[2] = rat brain membrane preparations
[3] = rat brain membrane preparations, 100 nM test substance, read-out: FAAH Inhibition, Inhibition Rate at 100 nM
[4] = rat brain membrane preparations, test substance 0.1 nM to 1 μM

| SMILES | inhibition at 0.1 µM [1] [%] | IC50 [2] [nM] | inhibition at 0.1 µM [3] [%] | IC50 [4] [nM] | inhibition at 0.1 µM (read-out: FAAH Inhibition, Inhibition Rate at 100 nM) [%] |
| --- | --- | --- | --- | --- | --- |
| CN(C)C(=O)n1c(=O)n(C)c2cnc(Cc3cccc(C(F)(F)F)c3)nc21 [Example 654, N,N,7-Trimethyl-8-oxo-2-[3-(trifluoromethyl)benzyl]-7,8-dihydro-9H-purine-9-carboxamide] | 110 | 11 | – | – | – |
| Cn1c(=O)n(C(=O)N2CCCC2)c2nc(CCc3ccc(F)cc3)ncc21 [Example 314, 2-[2-(4-Fluorophenyl)ethyl]-7-methyl-9-(pyrrolidin-1-ylcarbonyl)-7,9-dihydro-8H-purine-8-one] | – | – | 100 | 37 | – |
| COC(=O)CN(C)C(=O)n1c(=O)n(C)c2nc(-c3ccccc3)ncc21 [Example 38] | – | – | 73 | 76 | – |
| COCc1ncc2c(n1)n(C)c(=O)n2C(=O)N1CC[C@H](Oc2ccccc2)C1 [Example 477] | – | – | 88 | 26 | – |
| CN(C)C(=O)n1c(=O)n(C)c2cnc(-c3ccc(OC(F)F)cc3)nc21 [Example 337, 2-[4-(Difluoromethoxy)phenyl]-N,N,7-trimethyl-8-oxo-7,8-dihydro-9H-purine-9-carboxamide] | – | – | 82 | 46 | – |
| Cn1c(=O)n(C(=O)N2CCN(c3ccccc3Cl)CC2)c2cnc(-c3ccccc3)nc21 [Example 127, 7-{[4-(2-Chlorophenyl)piperazin-1-yl]carbonyl}-9-methyl-2-phenyl-7,9-dihydro-8H-purine-8-one] | – | – | 94 | 50 | – |
| CN(C)C(=O)n1c(=O)n(C)c2cnc(CCCCc3ccccc3)nc21 [Example 618] | 101 | 10 | – | – | – |
| CCn1c(=O)n(C(=O)N(C)C)c2nc(CCc3cccc(F)c3)ncc21 [Example 644, 7-Ethyl-2-[2-(3-fluorophenyl)ethyl]-N,N-dimethyl-8-oxo-7,8-dihydro-9H-purine-9-carboxamide] | 95 | 10 | – | – | – |
| COCCN(C)C(=O)n1c(=O)n(C)c2nc(-c3cccc(OC)c3)ncc21 [Example 59, N-(2-Methoxyethyl)-2-(3-methoxyphenyl)-N,9-dimethyl-8-oxo-8,9-dihydro-7H-purine-7-carboxamide] | – | – | 99 | 26 | – |
| Cn1c(=O)n(C(=O)N2CC(c3ccccc3)C2)c2cnc(C3CC3)nc21 [compound 623] | 87 | 3 | – | – | – |
| CCN(C)C(=O)n1c(=O)n(C)c2cnc(CCc3ccccc3F)nc21 [compound 554] | – | – | 43 | – | – |
| COc1cccc(-c2ncc3c(n2)n(C)c(=O)n3C(=O)N2CCN(Cc3cccc(Cl)c3)CC2)c1 [Example 87, 7-{[4-(3-Chlorobenzyl)piperazin-1-yl]carbonyl}-2-(3-methoxyphenyl)-9-methyl-7,9-dihydro-8H-purine-8-one] | – | – | – | 10 | 99 |
| Cn1c(=O)n(C(=O)N2CCC2)c2cnc(COc3ccc(Cl)cc3)nc21 [compound 406] | – | – | 54 | 100 | – |
| COc1ccccc1N1CCN(C(=O)n2c(=O)n(C)c3nc(-c4ccccc4)ncc32)CC1 [Example 122, 7-{[4-(2-Methoxyphenyl)piperazin-1-yl]carbonyl}-9-methyl-2-phenyl-7,9-dihydro-8H-purine-8-one] | – | – | 97 | 35 | – |
| Cn1c(=O)n(C(=O)N2CCCC2)c2cnc(Cc3ccc(C#N)cc3)nc21 [compound 264] | – | – | 91 | 54 | – |
| CCN(C)C(=O)n1c(=O)n(C)c2cnc(CCc3cccc(OC(F)(F)F)c3)nc21 [compound 558] | – | – | 83 | 23 | – |
| CN(C)C(=O)n1c(=O)n(C)c2nc(-c3ccncc3)ncc21 [Example 148, N,N,9-Trimethyl-8-oxo-2-(pyridin-4-yl)-8,9-dihydro-7H-purine-7-carboxamide] | – | – | 97 | 30 | – |

Further lines, with some results ahead:

| inhibition at 0.1 µM [1] [%] | IC50 [2] [nM] | inhibition at 0.1 µM [3] [%] | IC50 [4] [nM] | SMILES | inhibition at 0.1 µM (read-out: FAAH Inhibition, Inhibition Rate at 100 nM) [%] |
| --- | --- | --- | --- | --- | --- |
| – | – | 85 | 20 | CN(C)C(=O)n1c(=O)n(C)c2cnc(-c3cccc(OCC(F)(F)F)c3)nc21 [Example 336] | – |
| – | – | 84 | 23 | CN(C)C(=O)n1c(=O)n(C)c2cnc(COc3ccccc3C(F)(F)F)nc21 [Example 429] | – |
| – | – | 101 | 3 | COc1cccc(-c2ncc3c(n2)n(C)c(=O)n3C(=O)N(C)CCc2nc(-c3ccccc3)no2)c1 [Example 104, 2-(3-Methoxyphenyl)-N,9-dimethyl-8-oxo-N-[2-(3-phenyl-1,2,4-oxadiazol-5-yl)ethyl]-8,9-dihydro-7H-purine-7-carboxamide] | – |
| – | – | 101 | 11 | CN(C)C(=O)n1c(=O)n(C)c2cnc(-c3cccc(C(F)(F)F)c3)nc21 [compound 325] | – |
| – | – | 100 | 7 | Cn1c(=O)n(C(=O)N2CCCC2)c2cnc(-c3cc(F)ccc3F)nc21 [Example 189, 2-(2,5-Difluorophenyl)-9-methyl-7-(pyrrolidin-1-ylcarbonyl)-7,9-dihydro-8H-purine-8-one] | – |
| – | – | 96 | 13 | CN(C)C(=O)n1c(=O)n(C)c2cnc(CCc3ccc(OC4CCCC4)cc3)nc21 [compound 532] | – |
| – | – | 118 | 5 | CN(C)C(=O)n1c(=O)n(C)c2cnc(-c3cccc(Cl)c3)nc21 [compound 328] | – |
| – | – | 100 | 6 | CC(=O)c1ccc(N2CCN(C(=O)n3c(=O)n(C)c4nc(-c5ccccc5)ncc43)CC2)cc1 [Example 133, 7-{[4-(4-Acetylphenyl)piperazin-1-yl]carbonyl}-9-methyl-2-phenyl-7,9-dihydro-8H-purine-8-one] | – |
| – | – | 99 | 12 | CC(C)n1c(=O)n(C(=O)N2CCCC2)c2cnc(-c3ccccc3)nc21 [Example 305] | – |
| – | – | 98 | 5 | COc1cccc(-c2ncc3c(n2)n(C)c(=O)n3C(=O)N2CCN(c3cccc(F)c3)CC2)c1 [Example 137, 7-{[4-(3-Fluorophenyl)piperazin-1-yl]carbonyl}-2-(3-methoxyphenyl)-9-methyl-7,9-dihydro-8H-purine-8-one] | – |
| – | – | 102 | < 1 | CN(CCc1ccc(Cl)cc1)C(=O)n1c(=O)n(C)c2nc(Cc3ccccc3)ncc21 [Example 158, 2-Benzyl-N-[2-(4-chlorophenyl)ethyl]-N,9-dimethyl-8-oxo-8,9-dihydro-7H-purine-7-carboxamide] | – |
| – | – | 120 | 1 | COCc1ncc2c(n1)n(C)c(=O)n2C(=O)N1CC(c2ccc(OC(F)(F)F)cc2)C1 [Example 458, 2-(Methoxymethyl)-9-methyl-7-({3-[4-(trifluoromethoxy)phenyl]azetidin-1-yl}carbonyl)-7,9-dihydro-8H-purine-8-one] | – |
| – | – | 99 | 3 | COc1cccc(-c2ncc3c(n2)n(C)c(=O)n3C(=O)N2CCN(c3ccc(F)cc3)CC2)c1 [Example 136, 7-{[4-(4-Fluorophenyl)piperazin-1-yl]carbonyl}-2-(3-methoxyphenyl)-9-methyl-7,9-dihydro-8H-purine-8-one] | – |
